One data set has as its system Streptococcus pneumoniae. As to the kind of experiment: Antibacterial activity against Streptococcus pneumoniae. It is filed as functional.
For a further data set, the system named is Staphylococcus aureus. As to the kind of experiment: Antibacterial activity against Staphylococcus aureus. It is filed as functional.
Data set [1] can be described thus: Inhibition of Streptococcus pneumoniae LigA by FRET-based assay.
The nature of data set [2]: Inhibition of Staphylococcus aureus LigA by FRET-based assay.
A short description of data set [3]: Apparent permeability from apical to basolateral side in human Caco2 cells. It is filed as ADME, cell-based. The note with it: Caco-2. (In general: Caco-2 cells form a polarised layer with tight junctions and transporters.)
The nature of data set [4]: Equilibrium solubility of the compound. It is filed as physicochemical.
Data set [5] in a line: Lipophilicity, log D of the compound in octanol buffer at pH 7.4 by shake flask method. The format is physicochemical.
The nature of data set [6]: Plasma protein binding in human assessed as fraction unbound by equilibrium dialysis method. The format is ADME, cell-free. In general terms: Equilibrium dialysis compares concentrations on both sides of a semipermeable membrane.
The nature of data set [7]: Inhibition of Escherichia coli LigA by FRET-based assay.
The nature of data set [8]: Inhibition of […] LigA by FRET-based assay. Also noted: species or system Haemophilus influenzae.
The next data set addresses DNA ligase 1 (Homo sapiens, UniProt P18858). The data set can be described thus: Inhibition of human DNA Ligase I by FRET-based assay.
A further data set relates to Haemophilus influenzae. As to the kind of experiment: Antibacterial activity against efflux pump-deficient Haemophilus influenzae. The format is functional.

≈ marks a conversion by molar mass, not a printed value.

What is called IC50 is the concentration that inhibits the measured activity by half. Read a low IC50 as greater potency in that assay. As a reminder, the Papp A→B is the apparent permeability from the apical to the basolateral side of a cell layer. Broadly, the thermodynamic solubility is solubility found after equilibrating the solid with the medium. What is called logD is the decadic logarithm of the distribution of all forms, ionised or not, between an organic phase and buffer at a given pH. A high value points to higher lipophilicity. Broadly, the fraction unbound is free concentration divided by total concentration.

DNA ligase 1, sequence (P18858 whole entry): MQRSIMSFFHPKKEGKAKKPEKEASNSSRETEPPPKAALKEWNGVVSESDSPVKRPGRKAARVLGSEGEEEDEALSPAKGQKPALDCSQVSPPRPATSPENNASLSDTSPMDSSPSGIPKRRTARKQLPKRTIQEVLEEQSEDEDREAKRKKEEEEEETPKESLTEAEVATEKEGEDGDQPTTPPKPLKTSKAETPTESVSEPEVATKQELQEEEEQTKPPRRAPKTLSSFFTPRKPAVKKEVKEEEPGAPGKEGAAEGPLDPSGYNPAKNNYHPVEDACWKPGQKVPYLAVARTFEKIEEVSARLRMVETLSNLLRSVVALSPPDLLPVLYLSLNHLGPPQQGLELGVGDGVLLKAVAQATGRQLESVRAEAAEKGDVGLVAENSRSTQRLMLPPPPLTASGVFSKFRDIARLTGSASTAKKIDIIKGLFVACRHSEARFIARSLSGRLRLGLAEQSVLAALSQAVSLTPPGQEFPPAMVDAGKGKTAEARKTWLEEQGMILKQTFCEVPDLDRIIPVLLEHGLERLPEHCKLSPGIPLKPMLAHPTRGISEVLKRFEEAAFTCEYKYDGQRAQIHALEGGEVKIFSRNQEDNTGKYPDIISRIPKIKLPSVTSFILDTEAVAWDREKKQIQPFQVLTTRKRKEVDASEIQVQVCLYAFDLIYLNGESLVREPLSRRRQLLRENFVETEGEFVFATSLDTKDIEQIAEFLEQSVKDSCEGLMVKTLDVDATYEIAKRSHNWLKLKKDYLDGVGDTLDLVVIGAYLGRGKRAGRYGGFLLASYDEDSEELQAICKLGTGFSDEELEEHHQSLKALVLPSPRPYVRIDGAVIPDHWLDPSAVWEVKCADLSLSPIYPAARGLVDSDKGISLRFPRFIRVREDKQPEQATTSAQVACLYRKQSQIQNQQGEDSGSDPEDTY

`C[C@H]1O[C@@H](n2cnc3c(N)nc(OC4CCCC4)nc32)[C@H](O)[C@@H]1O`: the MIC turned out to be 2 µg/mL (≈ 5.96 µM) in the data set with Streptococcus pneumoniae and 8 µg/mL (≈ 23.9 µM) with Staphylococcus aureus. Also, the values for the IC50 in data set [1] and in data set [2] were 80 nM and 120 nM, respectively. Also, in [3], the Papp A→B worked out at 7.26 ×10⁻⁶ cm/s.
With `CCCCSc1nc(N)c2ncn([C@@H]3O[C@H](C)[C@@H](O)[C@H]3O)c2n1`, the MIC in the data set on Streptococcus pneumoniae was 8 µg/mL (≈ 23.6 µM); with Staphylococcus aureus, 64 µg/mL (≈ 189 µM). Further, the figures for the half-inhibitory concentration (IC50) in [1] and in data set [2] were 130 nM and 170 nM, respectively.
On to `C[C@H]1O[C@@H](n2cnc3c(N)nc(OCC4CC45CC5)nc32)[C@H](O)[C@@H]1O` (some centres undefined), for which the MIC in the data set with Streptococcus pneumoniae was found to be 1 µg/mL (≈ 2.88 µM); in the data set on Staphylococcus aureus, 2 µg/mL (≈ 5.76 µM). This compound had a thermodynamic solubility in [4] of 801 µM (≈ 278 µg/mL). Further, the IC50 is 40 nM in [1] and 60 nM in [2]. Also, in [5], the logD is 1.78. For the same compound, the fraction unbound in data set [6] was 0.25.
On to `Nc1nc(OC2CCCC2)nc2c1ncn2[C@@H]1O[C@H](CO)[C@H](Cl)[C@H]1O`, for which the MIC in the data set with Streptococcus pneumoniae and in the data set on Staphylococcus aureus was 8 µg/mL (≈ 21.6 µM) each time. Further, the figures for the IC50 in data set [1] and in data set [2] were 80 nM and 110 nM, respectively.
For the compound `C[C@H]1O[C@@H](n2cnc3c(N)nc(O[C@H]4CC[C@H](C)CC4)nc32)[C@H](O)[C@@H]1O`, the MIC against Streptococcus pneumoniae was 1 µg/mL (≈ 2.75 µM); in the data set with Staphylococcus aureus, 2 µg/mL (≈ 5.5 µM). In addition, in data set [4], the solubility (thermodynamic) is 934 µM (≈ 339 µg/mL). In addition, the figures for the IC50 in data set [1] and in data set [2] were 50 nM and 160 nM, respectively. The logD in data set [5] is 2.35. Moreover, in [6], the fraction unbound was 0.27.
For `Nc1nc(OC2CCCC2)nc2c1ncn2[C@@H]1O[C@H](CO)[C@@H](O)[C@H]1O`, the values for the MIC with Streptococcus pneumoniae and in the data set on Staphylococcus aureus were 16 µg/mL (≈ 45.5 µM) and 64 µg/mL (≈ 182 µM), respectively. Further, the IC50 in data set [1] stood at 150 nM; in data set [2] it was 430 nM. Also, the fraction unbound in data set [6] worked out at 0.66.
Regarding `CCCCSc1nc(N)c2ncn([C@@H]3O[C@H](CO)[C@@H](O)[C@H]3O)c2n1`, the MIC with Streptococcus pneumoniae was 32 µg/mL (≈ 90 µM); in the data set on Staphylococcus aureus, more than 64 µg/mL; in the data set with Haemophilus influenzae, 32 µg/mL (≈ 90 µM). Moreover, the IC50 is 1270 nM in [7]; 510 nM in data set [8]; more than 200000 nM on DNA ligase 1; 140 nM in [1]; 80 nM in data set [2]. The fraction unbound in data set [6] is 0.003.
For the compound `Nc1nc(OC2CCCC2)nc2c1ncn2[C@@H]1O[C@H](CF)[C@@H](O)[C@H]1O`, the MIC against Streptococcus pneumoniae stood at 4 µg/mL (≈ 11.3 µM); with Staphylococcus aureus, 16 µg/mL (≈ 45.3 µM). For the same compound, the IC50 in data set [1] and in [2] was 120 nM each time.
As to `C[C@H]1O[C@@H](n2cnc3c(N)nc(OCC4CC45CC5)nc32)[C@H](O)[C@H]1Cl` (some centres undefined), the MIC was 0.5 µg/mL (≈ 1.37 µM) in the data set on Streptococcus pneumoniae and 1 µg/mL (≈ 2.73 µM) against Staphylococcus aureus. The compound further yielded a solubility (thermodynamic) in [4] of 21 µM (≈ 7.68 µg/mL). Besides, the IC50 in data set [1] is 20 nM; in data set [2] it was 30 nM. The logD in data set [5] was determined as 3.7. For the same compound, the fraction unbound in data set [6] was determined as 0.04.
In the case of `C[C@H]1O[C@@H](n2cnc3c(N)nc(OC4CCCC4)nc32)[C@H](O)[C@@H]1OCc1ccc(Cl)c(Cl)c1`, the figures for the MIC against Streptococcus pneumoniae and with Staphylococcus aureus were 0.5 µg/mL (≈ 1.01 µM) and 8 µg/mL (≈ 16.2 µM), respectively. Moreover, the thermodynamic solubility in data set [4] is less than 1 µM. The IC50 is less than 10 nM in [1] and 130 nM in data set [2]. Besides, the pH-dependent lipophilicity (logD) in data set [5] is more than 3.5.
With `C[C@H]1O[C@@H](n2cnc3c(N)nc(OC4CC5CC5C4)nc32)[C@H](O)[C@@H]1O` (some centres undefined), the MIC worked out at 2 µg/mL (≈ 5.76 µM) in the data set with Streptococcus pneumoniae and 4 µg/mL (≈ 11.5 µM) in the data set on Staphylococcus aureus. Also, the results for the IC50 in data set [1] and in data set [2] were 60 nM and 130 nM, respectively.
With `Nc1nc(OCC2(CO)CC2)nc2c1ncn2[C@@H]1O[C@H](CF)[C@@H](O)[C@H]1O`, the MIC in the data set on Streptococcus pneumoniae and against Staphylococcus aureus was more than 64 µg/mL in each case. Further, the results for the IC50 in data set [1] and in [2] were 400 nM and 370 nM, respectively.
With `Nc1nc(SC2CCCC2)nc2c1ncn2[C@@H]1O[C@H](CO)[C@@H](O)[C@H]1O`, the MIC against Streptococcus pneumoniae was 16 µg/mL (≈ 43.5 µM); with Staphylococcus aureus, 32 µg/mL (≈ 87.1 µM). Besides, the values for the IC50 in data set [1] and in [2] were 440 nM and 380 nM, respectively.
Consider `[N-]=[N+]=N[C@@H]1[C@@H](O)[C@H](n2cnc3c(N)nc(OC4CCCC4)nc32)O[C@@H]1CF`, for which the MIC against Streptococcus pneumoniae is 0.5 µg/mL (≈ 1.32 µM); against Staphylococcus aureus it was 8 µg/mL (≈ 21.1 µM). The IC50 in data set [1] is 70 nM; in [2], 90 nM. In [5], this compound registered a logD of 2.65. The free fraction (fraction unbound) in [6] was found to be 0.19.
For `C[C@H]1O[C@@H](n2cnc3c(N)nc(OC4CCCC4)nc32)[C@H](O)[C@H]1Cl`, the MIC in the data set on Streptococcus pneumoniae amounted to 4 µg/mL (≈ 11.3 µM); in the data set on Staphylococcus aureus, 8 µg/mL (≈ 22.6 µM). The solubility (thermodynamic) in data set [4] amounted to 304 µM (≈ 108 µg/mL). In addition, the IC50 in data set [1] and in data set [2] was 40 nM in each case. In data set [5], this compound had a logD of 3.18.
Turning to `C[C@H]1O[C@@H](n2cnc3c(N)nc(Oc4ccccc4)nc32)[C@H](O)[C@@H]1O`, the MIC with Streptococcus pneumoniae and in the data set on Staphylococcus aureus was 64 µg/mL (≈ 186 µM) each time. Further, the IC50 in data set [1] was 2670 nM; in data set [2], 140 nM.
In the case of `Nc1nc(OCc2nccs2)nc2c1ncn2[C@@H]1O[C@H](CF)[C@@H](O)[C@H]1O`, the results for the MIC in the data set with Streptococcus pneumoniae and against Staphylococcus aureus were 64 µg/mL (≈ 167 µM) and more than 64 µg/mL, respectively. Moreover, the IC50 in [1] amounted to 870 nM; in data set [2] it was 910 nM.
On the same counts, the results for `Nc1nc(OCC2CCC2)nc2c1ncn2[C@@H]1O[C@H](CF)[C@@H](O)[C@H]1O` are 2 µg/mL (≈ 5.66 µM), 8 µg/mL (≈ 22.6 µM), 50 nM and 60 nM.

These data come from ChEMBL document CHEMBL1806435, “Discovery of bacterial NAD+-dependent DNA ligase inhibitors: optimization of antibacterial activity” (Bioorg Med Chem Lett, 2011).
